Experimental data from ChEMBL document CHEMBL5131481, “Topoisomerase IIα inhibitory and antiproliferative activity of dihydroxylated 2,6-diphenyl-4-fluorophenylpyridines: Design, synthesis, and structure-activity relationships” (Bioorg Med Chem Lett, 2022).

Experiments:
[1] = biological target: DNA topoisomerase 2-alpha (Homo sapiens) (UniProt P11388); assay: Inhibition of topoisomerase 2alpha (unknown origin) assessed as relaxation of supercoiled plasmid pBR322 DNA at 100 uM relative to control
[2] = biological target: DNA topoisomerase 2-alpha (Homo sapiens) (UniProt P11388); assay: Inhibition of topoisomerase 2alpha (unknown origin) assessed as relaxation of supercoiled plasmid pBR322 DNA at 20 uM relative to control
[3] = test system: DU-145; assay: Antiproliferative activity against human DU-145 cells assessed as inhibition of cell proliferation; format: functional, cell-based
[4] = test system: HCT-15; assay: Antiproliferative activity against human HCT-15 cells assessed as inhibition of cell proliferation; format: functional, cell-based
[5] = test system: T47D; assay: Antiproliferative activity against human T47D cells assessed as inhibition of cell proliferation; format: functional, cell-based
[6] = test system: HeLa; assay: Antiproliferative activity against human HeLa cells assessed as inhibition of cell proliferation; format: functional, cell-based

Sequence of DNA topoisomerase 2-alpha (Homo sapiens) (P11388 whole entry): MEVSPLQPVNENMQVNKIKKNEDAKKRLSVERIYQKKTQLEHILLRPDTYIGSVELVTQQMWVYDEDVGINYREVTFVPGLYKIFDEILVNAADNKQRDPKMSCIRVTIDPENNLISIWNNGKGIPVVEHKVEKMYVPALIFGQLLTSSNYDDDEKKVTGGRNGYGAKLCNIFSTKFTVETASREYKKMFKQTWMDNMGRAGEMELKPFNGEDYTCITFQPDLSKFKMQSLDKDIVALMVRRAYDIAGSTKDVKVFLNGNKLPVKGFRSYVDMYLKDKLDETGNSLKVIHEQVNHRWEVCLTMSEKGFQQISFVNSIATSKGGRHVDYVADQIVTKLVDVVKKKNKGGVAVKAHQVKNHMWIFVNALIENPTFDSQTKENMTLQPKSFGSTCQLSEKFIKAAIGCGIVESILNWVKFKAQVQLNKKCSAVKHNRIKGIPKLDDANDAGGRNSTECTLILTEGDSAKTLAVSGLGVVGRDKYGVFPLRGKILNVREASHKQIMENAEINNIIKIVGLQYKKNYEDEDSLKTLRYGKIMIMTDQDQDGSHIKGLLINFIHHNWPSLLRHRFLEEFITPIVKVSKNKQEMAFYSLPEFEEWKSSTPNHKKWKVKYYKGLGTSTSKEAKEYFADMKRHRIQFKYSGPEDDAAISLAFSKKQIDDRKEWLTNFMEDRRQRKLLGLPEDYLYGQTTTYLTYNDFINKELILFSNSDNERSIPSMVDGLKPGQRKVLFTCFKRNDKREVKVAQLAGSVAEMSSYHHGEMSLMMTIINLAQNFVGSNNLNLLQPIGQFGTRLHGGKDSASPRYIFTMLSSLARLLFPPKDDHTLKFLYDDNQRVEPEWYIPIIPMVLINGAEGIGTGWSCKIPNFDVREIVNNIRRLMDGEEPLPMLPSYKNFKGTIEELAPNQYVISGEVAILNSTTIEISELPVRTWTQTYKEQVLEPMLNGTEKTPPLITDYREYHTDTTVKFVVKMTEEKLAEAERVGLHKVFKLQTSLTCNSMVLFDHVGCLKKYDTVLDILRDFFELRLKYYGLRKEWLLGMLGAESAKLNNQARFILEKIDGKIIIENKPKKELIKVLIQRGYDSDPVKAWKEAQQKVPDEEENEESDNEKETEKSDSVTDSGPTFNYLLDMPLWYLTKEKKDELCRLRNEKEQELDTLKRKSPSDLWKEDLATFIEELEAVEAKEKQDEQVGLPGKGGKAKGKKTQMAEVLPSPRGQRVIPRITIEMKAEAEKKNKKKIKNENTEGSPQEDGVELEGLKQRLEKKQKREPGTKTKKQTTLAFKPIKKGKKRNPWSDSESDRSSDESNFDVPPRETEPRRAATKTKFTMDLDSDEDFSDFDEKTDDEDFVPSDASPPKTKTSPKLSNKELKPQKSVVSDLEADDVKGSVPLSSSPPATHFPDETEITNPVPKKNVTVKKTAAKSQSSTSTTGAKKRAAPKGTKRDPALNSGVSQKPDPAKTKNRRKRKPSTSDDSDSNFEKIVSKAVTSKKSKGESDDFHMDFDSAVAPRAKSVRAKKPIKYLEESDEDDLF

| Structure (SMILES) | inhibition [1] [%] | inhibition [2] [%] | IC50 [3] [µM] | IC50 [4] [µM] | IC50 [5] [µM] | IC50 [6] [µM] |
| --- | --- | --- | --- | --- | --- | --- |
| Oc1ccc(-c2cc(-c3ccc(F)cc3)cc(-c3cccc(O)c3)n2)cc1 | 43.7 | 30.4 | 15.2 | 5.02 | 5 | 8.08 |
| Oc1ccc(-c2cc(-c3ccccc3F)cc(-c3cccc(O)c3)n2)cc1 | 76.6 | 42.1 | 3.16 | 5.63 | 6.37 | 14.3 |
| Oc1ccc(-c2cc(-c3ccccc3C(F)(F)F)cc(-c3cccc(O)c3)n2)cc1 | 61.9 | 2.2 | 2.75 | 5.74 | 3.21 | 17.4 |
| Oc1ccc(-c2cc(-c3ccc(F)cc3)cc(-c3ccc(O)cc3)n2)cc1 | 97.1 | 42.5 | 6.03 | 4.97 | 5.26 | 8.68 |

The remaining compounds from weak to strong by IC50 [3], led by results:

| inhibition [1] [%] | inhibition [2] [%] | IC50 [3] [µM] | IC50 [4] [µM] | IC50 [5] [µM] | IC50 [6] [µM] | Structure (SMILES) |
| --- | --- | --- | --- | --- | --- | --- |
| 45.2 | 4.4 | 7.76 | 2.31 | 7.3 | 5.8 | Oc1ccc(-c2cc(-c3ccccc3OC(F)(F)F)cc(-c3cccc(O)c3)n2)cc1 |
| 36.6 | 4.9 | 7.12 | 6.31 | 6.87 | 1.28 | Oc1cccc(-c2cc(-c3ccc(F)cc3)cc(-c3cccc(O)c3)n2)c1 |
| 43.4 | 7.4 | 5.67 | 1.73 | 5.04 | 14.1 | Oc1ccc(-c2cc(-c3cccc(OC(F)(F)F)c3)cc(-c3cccc(O)c3)n2)cc1 |
| 33.4 | 6.7 | 5.42 | 4.22 | 7.95 | 16.7 | Oc1cccc(-c2cc(-c3ccccc3OC(F)(F)F)cc(-c3cccc(O)c3)n2)c1 |
| 59 | 6.4 | 5.39 | 13.9 | 5.15 | 16.9 | Oc1ccc(-c2cc(-c3ccc(OC(F)(F)F)cc3)cc(-c3ccc(O)cc3)n2)cc1 |
